Tests used:
[1] = target: T1, human histamine receptor type 3 (Homo sapiens, UniProt Q9Y5N1); experiment: Effect on activity of histamine receptor type 3 (intracellular cAMP, CHO cells); type: cell-based; conditions: preincubation with histamine, read-out: IC50, antagonist of histamine receptor type 3
T1 construct: expressed in transfected cells; host or cells: CHO cells

[2] = target: T2, human histamine receptor type 4 (Homo sapiens, UniProt Q9H3N8); experiment: Binding of radiolabeled ligand [3H] histamine to histamine receptor type 4; conditions: HEK-293 cells, [3H] histamine (10 nM)
T2 construct: expressed in transfected cells; host or cells: HEK-293 cells

[3] = tested on: ovalbumin-induced allergic rhinitis model; experiment: Ovalbumin-induced allergic rhinitis model in guinea pigs, oral administration; type: in vivo, guinea pig; conditions: intragastrically; for Number of nose scratchings / Number of sneezes: within 2 hours after ovalbumin
Method: Int Immunopharmacol. 2013. V.17(1). P.18-25]. Guinea pigs (250-300 g) were immunized with 4× (on days 0, 7, 14 and 21) intraperitoneal administration of a mixture of ovalbumin (100 μg/pig) and aluminum hydroxide (5 mg/pig), diluted and suspended in saline. On day 28 of the study, an ovalbumin solution (60 mg/ml) was injected intranasally to the animals, 20 μl into each nostril. On day 35, after shaving the skin on the back, the animals were intradermally injected with an ovalbumin solution (200 μg/ml, 25 μl). […] On day 42 of the study, an ovalbumin solution (60 mg/ml, 20 μl/nostril) was administered intranasally. A group of sham-immunized animals was formed in order to control the formation of allergic inflammation: the pigs received an aluminum hydroxide solution (5 mg/pig) on days 0, 7, 14 and 21, a saline solution on days 28 and 35, and an ovalbumin solution (60 mg/ml, 20 μl/nostril) on day 42. Table 1 presents data on clinical manifestations of pathology and the number of eosinophils in the lavage fluid in guinea pigs on the allergic rhinitis experimental model after oral administration (M±m, n=10)
Compound I was administered to animals intragastrically 48, and 1 hour before intranasal administration of ovalbumin. Clinical manifestations of rhinitis were assessed within 2 hours after the last administration of ovalbumin: the numbers of sneezes and nose scratchings were counted. In addition, eosinophils were counted in the nasal lavage fluid.

[4] = target: T1, human histamine receptor type 3; experiment: Binding of radiolabeled ligand [3H]Nα-methylhistamine to histamine receptor type 3; conditions: CHO cells, [3H]Nα-methylhistamine (1 nM)
[5] = tested on: histamine-induced nasal congestion model; experiment: Histamine-induced nasal congestion model in dogs, nasal administration of 1% solution; type: in vivo, Beagle dogs; conditions: 1% solution intranasally
Method: A histamine-induced nasal congestion model in dogs was performed according to the standard procedure [Tiniakov R. L., Tiniakova O. P., McLeod R. L., Hey J. A., Yeates D. B. Canine model of nasal congestion and allergic rhinitis//J Appl Physiol. 2003. V.94(5). P.1821-1828]. Beagle dogs were injected to the nasal cavity with a 5% histamine solution in a volume of 250 μl/nostril. The volume of the nasal cavity of the right and left nostrils was measured using a rhinometer before and 5, 10, 15, 20, 30, 40, 50 and 60 minutes after administration of histamine. Five experiments were carried out in which Compound I was administered intranasally once in the form of a 1% solution in a volume of 50 μl at different time periods: 1) 5 minutes after the administration of histamine; 2) right before administration of histamine; 3) 3 hours before administration of histamine; 4) […] administration of histamine; and 5) 8 hours before administration of histamine.

T1 sequence (Q9Y5N1 whole entry): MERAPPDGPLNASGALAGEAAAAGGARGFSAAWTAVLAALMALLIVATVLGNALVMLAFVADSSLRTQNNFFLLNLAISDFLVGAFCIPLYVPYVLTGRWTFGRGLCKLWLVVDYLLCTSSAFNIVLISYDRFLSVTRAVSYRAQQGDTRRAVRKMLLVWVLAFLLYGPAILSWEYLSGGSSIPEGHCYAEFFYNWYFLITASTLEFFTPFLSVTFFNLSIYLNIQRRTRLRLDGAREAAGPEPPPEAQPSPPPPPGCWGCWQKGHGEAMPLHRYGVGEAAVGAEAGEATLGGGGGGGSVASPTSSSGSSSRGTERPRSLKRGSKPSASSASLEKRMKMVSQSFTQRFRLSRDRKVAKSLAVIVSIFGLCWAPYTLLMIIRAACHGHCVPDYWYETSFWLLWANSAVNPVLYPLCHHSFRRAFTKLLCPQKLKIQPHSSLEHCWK
T2 sequence (Q9H3N8 whole entry): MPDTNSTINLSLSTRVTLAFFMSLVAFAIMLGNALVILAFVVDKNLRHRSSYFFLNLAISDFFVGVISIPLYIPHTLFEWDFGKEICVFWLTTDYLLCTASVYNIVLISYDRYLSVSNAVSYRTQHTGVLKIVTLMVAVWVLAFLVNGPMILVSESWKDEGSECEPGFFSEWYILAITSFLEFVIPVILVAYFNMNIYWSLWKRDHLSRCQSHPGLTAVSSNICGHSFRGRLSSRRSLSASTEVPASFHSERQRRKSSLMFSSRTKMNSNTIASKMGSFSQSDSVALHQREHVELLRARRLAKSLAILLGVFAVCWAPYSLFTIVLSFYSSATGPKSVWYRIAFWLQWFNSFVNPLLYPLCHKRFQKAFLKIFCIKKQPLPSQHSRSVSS

O=C(CC(=O)NCCc1cnc[nH]1)NCCc1cnc[nH]1 [Compound I, N,N′-bis(2-(1H-imidazol-5-yl)ethyl)malonamide]
IC50 [1]: 20 µM
Ki [2]: 16 µM
Number of eosinophils per 1 μL of lavage fluid ([3]; 0.014 mg/kg): 1300.5 ± 93.8*#& per 1 μL
Number of nose scratchings ([3]; 0.014 mg/kg): 16.1 ± 2*#&
Number of sneezes ([3]; 0.014 mg/kg): 11.6 ± 1.4*#&
Number of eosinophils per 1 μL of lavage fluid ([3]; 0.042 mg/kg): 1219.6 ± 159.4*#& per 1 μL
Number of nose scratchings ([3]; 0.042 mg/kg): 16.2 ± 2.7*&
Number of sneezes ([3]; 0.042 mg/kg): 10.5 ± 1.2*#&
Number of eosinophils per 1 μL of lavage fluid ([3]; 0.14 mg/kg): 1141.5 ± 128.5*#& per 1 μL
Number of nose scratchings ([3]; 0.14 mg/kg): 13.3 ± 1.3*&
Number of sneezes ([3]; 0.14 mg/kg): 8.3 ± 0.9*#&
Number of eosinophils per 1 μL of lavage fluid ([3]; 0.42 mg/kg): 1069.0 ± 139.4*#& per 1 μL
Number of nose scratchings ([3]; 0.42 mg/kg): 16.2 ± 2.0*#&
Number of sneezes ([3]; 0.42 mg/kg): 5.2 ± 0.6*&
Number of eosinophils per 1 μL of lavage fluid ([3]; 1.4 mg/kg): 984.1 ± 111.0*#& per 1 μL
Number of nose scratchings ([3]; 1.4 mg/kg): 14.4 ± 3.3*&
Number of sneezes ([3]; 1.4 mg/kg): 6.9 ± 0.8*#&
Ki [4]: 2.7 µM
duration of the therapeutic effect [5]: at least 8 hours
onset time of the therapeutic effect [5]: no more than 5 minutes

Source: patent US11571411B2, “Use of a bisamide derivative of malonic acid for treating allergic and other diseases in humans and animals” (PHARMENTERPRISES ALLERGY LLC, priority 2018, dated 2023)
